According to patent US20120101083A1, “S1P1 AGONISTS COMPRISING A BICYCLIC N-CONTAINING RING” (GLAXO GROUP LIMITED, priority 2009, published 2012):
Structures can show the parent of a compound that is named as a salt.

What was measured:
[1] = target: T1, S1P1 receptor (S1P1 expressing RH7777 membranes) (Homo sapiens, UniProt P21453); assay: S1P1 GTPγS assay; format: biochemical; conditions: tested in one of the above S1P1 assays (two GTPγS formats)
T1 construct: expressed in transfected cells; host or cells: RH7777 cells (membranes)
Summary of the method: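 Membranes from RH7777 cells expressing human S1P1 (1.5 μg/well) precoupled 30 min on ice to WGA SPA beads in 20 mM HEPES pH 7.4, 10 mM MgCl2, 100 mM NaCl, with 10 μM GDP and 90 μg/ml saponin. [35S]-GTPγS 0.5 nM final added with compound; SPA signal read immediately.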

[2] = target: T2, S1P1 (PathHunter CHO-K1 EDG1 β-Arrestin cell line) (Homo sapiens, UniProt P21453); assay: S1P-1 β-Arrestin recruitment assay; format: cell-based; conditions: CHO-K1 EDG1 β-Arrestin cells, chemi-luminescence
T2 construct: host or cells: PathHunter CHO-K1 EDG1 β-Arrestin cell line
Summary of the method: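 CHO-K1 cells expressing S1P1 and β-arrestin 2 fused to complementing β-galactosidase fragments, at 1×10^4 cells/well in pH 7.4 buffer with 0.1% BSA. Compound exposure 90 min at 37 °C then 15 min room temperature; chemiluminescent substrate added for 60 min before luminescence read.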

T1 sequence (P21453 whole entry): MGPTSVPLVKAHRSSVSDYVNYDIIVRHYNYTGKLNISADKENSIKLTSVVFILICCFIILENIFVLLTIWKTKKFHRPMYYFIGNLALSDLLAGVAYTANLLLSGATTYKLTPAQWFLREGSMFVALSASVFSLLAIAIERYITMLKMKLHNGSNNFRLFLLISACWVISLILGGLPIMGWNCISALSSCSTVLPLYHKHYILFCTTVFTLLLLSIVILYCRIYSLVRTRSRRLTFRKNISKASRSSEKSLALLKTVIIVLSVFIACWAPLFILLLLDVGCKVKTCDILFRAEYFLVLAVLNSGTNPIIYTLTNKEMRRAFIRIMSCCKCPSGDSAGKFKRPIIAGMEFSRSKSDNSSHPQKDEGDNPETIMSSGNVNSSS
T2 sequence (P21453 whole entry): as above
T2 sequence (P32121 whole entry partner): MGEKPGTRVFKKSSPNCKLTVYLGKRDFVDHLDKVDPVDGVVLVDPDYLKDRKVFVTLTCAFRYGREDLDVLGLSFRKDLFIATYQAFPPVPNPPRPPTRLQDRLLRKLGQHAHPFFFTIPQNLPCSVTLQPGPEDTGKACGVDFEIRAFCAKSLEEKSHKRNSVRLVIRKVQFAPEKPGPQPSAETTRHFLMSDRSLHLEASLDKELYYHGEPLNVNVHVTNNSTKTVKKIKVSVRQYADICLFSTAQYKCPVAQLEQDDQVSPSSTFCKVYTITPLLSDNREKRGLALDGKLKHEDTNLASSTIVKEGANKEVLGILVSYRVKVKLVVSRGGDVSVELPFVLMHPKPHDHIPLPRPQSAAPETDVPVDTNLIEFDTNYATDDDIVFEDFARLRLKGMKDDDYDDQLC

Row | SMILES | EC50 [1] | EC50 [2]
1 | Cc1c(-c2noc(-c3ccc(OC(C)C)c(C#N)c3)n2)ccc2c1CCN(C(=O)CCCN)C2 [Example 41, 5-{3-[2-(4-Aminobutanoyl)-5-methyl-1,2,3,4-tetrahydro-6-isoquinolinyl]-1,2,4-oxadiazol-5-yl}-2-[(1-methylethyl)oxy]benzonitrile hydrochloride] | ≤ 100 nM | ≤ 10 nM
2 | Cc1c(-c2noc(-c3ccc(OC(C)C)c(C#N)c3)n2)ccc2c1CCN(C(=O)CN)C2 [Example 42, 5-[3-(2-Glycyl-5-methyl-1,2,3,4-tetrahydro-6-isoquinolinyl)-1,2,4-oxadiazol-5-yl]-2-[(1-methylethyl)oxy]benzonitrile hydrochloride] | ≤ 100 nM | ≤ 10 nM
3 | CNC(=O)CCN1CCc2c(ccc(-c3noc(-c4ccc(OC(C)C)c(C#N)c4)n3)c2C)C1 [Example 43, 3-[6-(5-{3-cyano-4-[(1-methylethyl)oxy]phenyl}-1,2,4-oxadiazol-3-yl)-5-methyl-3,4-dihydro-2(1H)-isoquinolinyl]-N-methylpropanamide] | ≤ 10 nM | ≤ 10 nM
4 | CCNC(=O)CCCN1CCc2ccc(-c3noc(-c4ccc(OC(C)C)c(C#N)c4)n3)cc2CC1 [Example 44, 4-[7-(5-{3-cyano-4-[(1-methylethyl)oxy]phenyl}-1,2,4-oxadiazol-3-yl)-1,2,4,5-tetrahydro-3H-3-benzazepin-3-yl]-N-ethylbutanamide] | ≤ 100 nM | ≤ 10 nM
5 | CC(C)Oc1ccc(-c2nnc(-c3ccc4c(c3)CCN(CCC(N)=O)C4)s2)cc1C#N [Example 47, 3-[6-(5-{3-cyano-4-[(1-methylethyl)oxy]phenyl}-1,3,4-thiadiazol-2-yl)-3,4-dihydro-2(1H)-isoquinolinyl]propanamide] | ≤ 1000 nM | ≤ 100 nM
6 | CC(C)Oc1ccc(-c2nc(-c3ccc4c(c3)CCN(C(=O)CN)CC4)no2)cc1C#N [Example 48, 5-[3-(3-glycyl-2,3,4,5-tetrahydro-1H-3-benzazepin-7-yl)-1,2,4-oxadiazol-5-yl]-2-[(1-methylethyl)oxy]benzonitrile trifluoroacetate] | ≤ 10 nM | ≤ 10 nM
7 | N#Cc1cc(-c2nc(-c3ccc4c(c3)CCN(C(=O)CN)CC4)no2)ccc1OC(CF)CF [Example 54, 2-{[2-fluoro-1-(fluoromethyl)ethyl]oxy}-5-[3-(3-glycyl-2,3,4,5-tetrahydro-1H-3-benzazepin-7-yl)-1,2,4-oxadiazol-5-yl]benzonitrile] | ≤ 100 nM | ≤ 10 nM
8 | Cc1c(-c2noc(-c3ccc(OC(C)C)c(C#N)c3)n2)ccc2c1CCN(C(=O)[C@H](N)[C@@H](C)O)C2 [Example 56, 5-[3-(2-D-allothreonyl-5-methyl-1,2,3,4-tetrahydro-6-isoquinolinyl)-1,2,4-oxadiazol-5-yl]-2-[(1-methylethyl)oxy]benzonitrile] | ≤ 100 nM | ≤ 100 nM
9 | Cc1c(-c2noc(-c3ccc(OC(C)C)c(C#N)c3)n2)ccc2c1CCN(C(CO)CO)C2 [Example 64, 5-(3-{2-[2-hydroxy-1-(hydroxymethyl)ethyl]-5-methyl-1,2,3,4-tetrahydro-6-isoquinolinyl}-1,2,4-oxadiazol-5-yl)-2-[(1-methylethyl)oxy]benzonitrile] | ≤ 1000 nM | ≤ 10 nM
10 | CNCCC(=O)N1CCc2ccc(-c3noc(-c4ccc(OC(C)C)c(C#N)c4)n3)cc2CC1 [Example 67, 5-{3-[3-(N-methyl-b-alanyl)-2,3,4,5-tetrahydro-1H-3-benzazepin-7-yl]-1,2,4-oxadiazol-5-yl}-2-[(1-methylethyl)oxy]benzonitrile] | ≤ 100 nM | ≤ 100 nM
11 | CC(C)Oc1ccc(-c2nc(-c3ccc4c(c3)CCN(C(CO)CO)CC4)no2)cc1C#N [Example 68, 5-(3-{3-[2-hydroxy-1-(hydroxymethyl)ethyl]-2,3,4,5-tetrahydro-1H-3-benzazepin-7-yl}-1,2,4-oxadiazol-5-yl)-2-[(1-methylethyl)oxy]benzonitrile] | ≤ 100 nM | ≤ 100 nM
12 | CC(C)Oc1ccc(-c2nc(-c3ccc4c(c3)CCN(C(=O)CCN)CC4)no2)cc1C#N [Example 69, 5-[3-(3-β-alanyl-2,3,4,5-tetrahydro-1H-3-benzazepin-7-yl)-1,2,4-oxadiazol-5-yl]-2-[(1-methylethyl)oxy]benzonitrile] | ≤ 100 nM | ≤ 10 nM
13 | CCOc1ccc(-c2nc(-c3ccc4c(c3)CCN(CC(O)CO)CC4)no2)cc1C#N (stereo not shown) [Example 70, 5-{3-[3-(2,3-dihydroxypropyl)-2,3,4,5-tetrahydro-1H-3-benzazepin-7-yl]-1,2,4-oxadiazol-5-yl}-2-(ethyloxy)benzonitrile] | ≤ 100 nM | ≤ 100 nM
14 | Cc1c(-c2noc(-c3ccc(OC(C)C)c(C#N)c3)n2)ccc2c1CCN(C[C@H](O)CO)C2 [Example 71, 5-(3-{2-[(2S)-2,3-dihydroxypropyl]-5-methyl-1,2,3,4-tetrahydro-6-isoquinolinyl}-1,2,4-oxadiazol-5-yl)-2-[(1-methylethyl)oxy]benzonitrile hydrochloride] | ≤ 100 nM | ≤ 100 nM
15 | CC(C)Oc1ccc(-c2nc(-c3ccc4c(c3)CCN(C[C@H](O)CO)CC4)no2)cc1C#N [Example 72, 5-(3-{3-[(2S)-2,3-dihydroxypropyl]-2,3,4,5-tetrahydro-1H-3-benzazepin-7-yl}-1,2,4-oxadiazol-5-yl)-2-[(1-methylethyl)oxy]benzonitrile] | ≤ 100 nM | ≤ 10 nM
16 | Cc1c(-c2noc(-c3ccc(OC(C)C)c(C#N)c3)n2)ccc2c1CCN(C[C@@H](O)CO)C2 [Example 73, 5-(3-{2-[(2R)-2,3-dihydroxypropyl]-5-methyl-1,2,3,4-tetrahydro-6-isoquinolinyl}-1,2,4-oxadiazol-5-yl)-2-[(1-methylethyl)oxy]benzonitrile hydrochloride] | ≤ 100 nM | ≤ 10 nM
17 | CC(C)Oc1ccc(-c2nc(-c3ccc4c(c3)CCN(C[C@@H](O)CO)CC4)no2)cc1C#N [Example 74, 5-(3-{3-[(2R)-2,3-dihydroxypropyl]-2,3,4,5-tetrahydro-1H-3-benzazepin-7-yl}-1,2,4-oxadiazol-5-yl)-2-[(1-methylethyl)oxy]benzonitrile] | ≤ 100 nM | ≤ 100 nM
18 | CC(C)Oc1ccc(-c2nc(-c3ccc4c(c3)CCN(CC(=O)NC[C@H](C)O)CC4)no2)cc1C#N [Example 75, 2-[7-(5-{3-cyano-4-[(1-methylethyl)oxy]phenyl}-1,2,4-oxadiazol-3-yl)-1,2,4,5-tetrahydro-3H-3-benzazepin-3-yl]-N-[(2S)-2-hydroxypropyl]acetamide hydrochloride] | ≤ 100 nM | ≤ 10 nM
19 | CC(C)Oc1ccc(-c2nc(-c3cccc4c3CCN(CC(O)CO)C4)no2)cc1C#N (stereo not shown) [Example 76, 5-{3-[2-(2,3-dihydroxypropyl)-1,2,3,4-tetrahydro-5-isoquinolinyl]-1,2,4-oxadiazol-5-yl}-2-[(1-methylethyl)oxy]benzonitrile] | ≤ 10 nM | ≤ 10 nM
20 | CC(C)Oc1ncc(-c2nc(-c3ccc4c(c3)CCN(C(=O)[C@@H](N)[C@@H](C)O)CC4)no2)cc1C#N [Example 77, 2-[(1-methylethyl)oxy]-5-[3-(3-L-threonyl-2,3,4,5-tetrahydro-1H-3-benzazepin-7-yl)-1,2,4-oxadiazol-5-yl]-3-pyridinecarbonitrile hydrochloride] | ≤ 1000 nM | ≤ 100 nM
21 | CC(C)Oc1ccc(-c2nc(-c3ccc4c(c3)CCN(CC(=O)N[C@H](C)CO)CC4)no2)cc1C#N [Example 78, 2-[7-(5-{3-cyano-4-[(1-methylethyl)oxy]phenyl}-1,2,4-oxadiazol-3-yl)-1,2,4,5-tetrahydro-3H-3-benzazepin-3-yl]-N-(1R)-2-hydroxy-1-methylethyl]acetamide hydrochloride] | ≤ 1000 nM | ≤ 100 nM
22 | Cc1c(-c2noc(-c3cnc(OC(C)C)c(C#N)c3)n2)ccc2c1CCN(C(=O)[C@@H](N)[C@@H](C)O)C2 [Example 79, 2-[(1-methylethyl)oxy]-5-[3-(5-methyl-2-L-threonyl-1,2,3,4-tetrahydro-6-isoquinolinyl)-1,2,4-oxadiazol-5-yl]-3-pyridinecarbonitrile hydrochloride] | ≤ 100 nM | ≤ 10 nM
23 | CC(C)Oc1ccc(-c2nc(-c3ccc4c(c3)CCN(CC(=O)N[C@@H](C)CO)CC4)no2)cc1C#N [Example 80, 2-[7-(5-{3-cyano-4-[(1-methylethyl)oxy]phenyl}-1,2,4-oxadiazol-3-yl)-1,2,4,5-tetrahydro-3H-3-benzazepin-3-yl]-N-[(1S)-2-hydroxy-1-methylethyl]acetamide hydrochloride] | ≤ 100 nM | ≤ 10 nM
24 | CC(C)Oc1ccc(-c2nc(-c3ccc4c(c3)CCN(C(=O)[C@@](C)(N)CO)CC4)no2)cc1C#N [Example 81, 2-[(1-methylethyl)oxy]-5-{3-[3-(2-methyl-L-seryl)-2,3,4,5-tetrahydro-1H-3-benzazepin-7-yl]-1,2,4-oxadiazol-5-yl}benzonitrile] | ≤ 100 nM | ≤ 100 nM
25 | Cc1c(-c2noc(-c3ccc(OC(C)C)c(C#N)c3)n2)ccc2c1CCN(C(=O)[C@@](C)(N)CO)C2 [Example 82, 2-[(1-methylethyl)oxy]-5-{3-[5-methyl-2-(2-methyl-L-seryl)-1,2,3,4-tetrahydro-6-isoquinolinyl]-1,2,4-oxadiazol-5-yl}benzonitrile] | ≤ 1000 nM | ≤ 100 nM
26 | CC(C)Oc1ccc(-c2nc(-c3cccc4c3CCN(C(=O)CN)C4)no2)cc1C#N [Example 87, 5-[3-(2-glycyl-1,2,3,4-tetrahydro-5-isoquinolinyl)-1,2,4-oxadiazol-5-yl]-2-[(1-methylethyl)oxy]benzonitrile hydrochloride] | ≤ 10 nM | ≤ 10 nM
